Data published in US8633167B2, “Method for the protection of trees” (Syngenta Crop Protection LLC, priority 2006, dated 2014).

Assays:
[1] = system: Cerambycid larvae; experiment: Bolt study (Example 1): cerambycid larval feeding in loblolly pine bolts cut after trunk injection; type: in vivo; settings: for reduction of cerambycid feeding damage: May
Experimental: (§1) Two 20-year-old, recently thinned loblolly pine plantations were selected on land owned by Temple-Inland Forest Products Corporation about 5 km south of Wells (Angelina County), Tex. Trees in one plantation were injected for use in a bolt study (Example 1). Trees in a 0.2 ha section of the second plantation were injected as part of a single-tree protection study (Example 2). A staging area also was set up in the second plantation where bolts from the first plantation were exposed to bark beetles and wood borers.
Seventy-five loblolly pine trees, Pinus taeda L., 15-20 cm diameter at breast height (DBH), were selected in March 2004. Each treatment was injected into four cardinal points about 0.3 m above the ground on each of 15 trees in April (16th-23rd) using the new Arborjet Tree IV™ microinfusion system (Arborjet, Inc. Woburn, Mass.). The treatments included: • 1) Emamectin benzoate (Denim®, 1.92% ai, Syngenta Crop Science)—Denim® was mixed 1:1 with methanol and applied at 18.6 ml solution per inch of tree diameter at breast height (DBH) (=0.2 g active per inch DBH). • 2) Check (untreated)
After 1 (May 24), 3 (July 19) and 5 (September) months post-injection, 5 trees of each treatment were felled and two 1.5 m long bolts were removed from the 3 m and 8 m heights of the bole. The bolts were transported to a nearby plantation that was recently thinned and contained fresh slash material. Each bolt was placed about 1 m apart on discarded, dry pine bolts to maximize surface area available for colonization as well as to discourage predation by ground and litter-inhabiting organisms. To facilitate timely bark beetle colonization, packets of bark beetle pheromones (racemic ipsdienol + lanerione combination, ipsenol or cis-verbenol; Phero Tech, Inc., Delta, BC, Canada) were attached separately to three 1 m stakes evenly spaced in the study area. Racemic ipsdienol and cis-verbenol were used with the second and third series of bolts deployed in July and September, respectively. The packets were removed after 2 weeks when signs of attacks (boring dust) were observed on most test bolts, signaling that naturally-produced pheromones were present.
Each series of bolts were retrieved about 3 weeks after deployment, after observing many cerambycid egg niches on the bark surface of most bolts. There was concern that if cerambycid larvae were allowed to develop too long, their feeding activity would obscure or obliterate the Ips galleries. Thus, each series of bolts were retrieved and stored temporarily in a TFS seedling cooler (˜45° F.) to slow cerambycid development until the bolts could be evaluated.
In the laboratory, two 10×50 cm strips (total=1000 cm^2) of bark were removed from each bolt. Several measurements were made relating to construction of nuptial chambers and egg galleries and development of brood: • 1) Number of unsuccessful attacks—penetration to phloem, but no egg galleries. • 2) Number of successful attacks—construction of nuptial chamber and at least one egg gallery extending from it. • 3) Number and lengths of egg galleries with brood galleries radiating from them. • 4) Number and lengths of egg galleries without brood galleries. • 5) Cerambycid activity, estimated by overlaying a 100 cm^2 grid over a portion of each bark strip and counting the number of squares overlapping area where cerambycid larvae had fed.
Treatment efficacy was determined by comparing Ips beetle attacks and egg gallery length and cerambycid feeding on treated and untreated bolts. The data were transformed by log10(x+1) to satisfy criteria for normality and homoscedasticity (Zar 1984) and analyzed by GLM and the Fishers Protected LSD test using the Statview statistical program.

[2] = system: Ips engravers beetles; experiment: Single-tree protection study (Example 2): Ips attack, tree mortality and gallery construction on standing loblolly pine; type: in vivo; settings: for Mean # of Egg Galleries Total Number / Mean # of Egg Galleries With Brood No. / Mean # of Egg Galleries Without Brood No. / Mean Length of Egg Galleries Total Length / Mean Length of Egg Galleries With Brood cm / Mean Length of Egg Galleries Without Brood cm: bolts cut after tree mortality or at the end of the trial; for Mean # of Nuptial Chambers With Egg Galleries % of Total / Mean # of Nuptial Chambers Without Egg Galleries % of Total / Mean # of Nuptial Chambers Without Egg Galleries No. / Mean # of Nuptial Chambers with Egg Galleries No. / Mean Total # of Nuptial Chambers: bolts cut after tree mortality or the end of the trial
Experimental: as §1
Loblolly pine, 15-20 cm DBH, were selected in the second plantation in March 2004. Each treatment (the same as those used in Example 1) was injected into four cardinal points about 0.3 m above the ground on each of 6 trees in April (16th-23rd) using the Arborjet Tree IV™ system. After 5 weeks post-injection (May 28), frills were cut with a hatchet into the sapwood between the injection points near the base of the tree. A cellulose sponge was inserted into each cut and loaded with 10 ml of a 4:1 mix of sodium N-methyldithiocarbamate (MS) (Woodfume®; Osmose, Inc., Buffalo, N.Y.) plus dimethyl sulfoxide (DMSO) (Aldrich Chemical) (Roton 1987, Strom et al. 2004). This method reduces resin to near zero in 1-2 weeks. The intent was to stress the tree and make it susceptible to attack by bark beetles without killing it.
Pheromone packets containing racemic ipsdienol + lanerione, ipsenol or cis-verbenol were attached (June 7) atop 3 m stakes evenly spaced in between and around the study trees to encourage attack by the three Ips engraver species. […] Thus, ipsdienol and cis-verbenol pheromone baits were deployed on all stakes on June 17th. The baits were changed every 4 weeks.
A clear panel of acetate (10 cm wide by 25 cm long) coated with Stickem Special® was attached 2 m high on standing trees after deployment of pheromone baits to monitor arrival of bark beetles. The traps were left in place for two weeks.
Three weeks after pheromone deployment (June 28), each tree was evaluated by marking a 30 cm section of bole at a height of 3 m. All visible Ips attacks and cerambycid egg niches were counted within the marked area. The number of trees with fading crowns also was recorded. Thereafter, the trees were evaluated weekly for crown fading. When mortality did occur, the trees were felled and two bolts taken and evaluated for attack success and gallery length as described in Example 1. All remaining trees were felled 66 days (Aug. 9) after initial pheromone deployment when no additional trees had died for 3 weeks. Treatment efficacy was determined by comparing tree survival, beetle attacks and egg gallery length on treated and untreated bolts. As before, data were transformed and analyzed by GLM and the Fisher's Protected LSD test using the Statview statistical program.

[3] = system: coneworm, Dioryctria spp.; settings: systemic activity in pine; cited from earlier work

4″-deoxy-4″-N-methylamino avermectin B1a/B1b [Emamectin]
Percent Phloem Area Consumed by Larvae ([1]; 1 Month Post Injection (May), bolt height 3 m): 2.2 a %
Percent Phloem Area Consumed by Larvae ([1]; 1 Month Post Injection (May), bolt height 8 m): 0.0 a %
Percent Phloem Area Consumed by Larvae ([1]; 3 Months Post Injection (July), bolt height 3 m): 0.0 a %
Percent Phloem Area Consumed by Larvae ([1]; 3 Months Post Injection (July), bolt height 8 m): 0.0 a %
Percent Phloem Area Consumed by Larvae ([1]; 5 Months Post Injection (September), bolt height 3 m): 0.0 a %
Percent Phloem Area Consumed by Larvae ([1]; 5 Months Post Injection (September), bolt height 8 m): 0.0 a %
cerambycid larval feeding or development ([1]; July and September series, bolts from 3 m): no larval feeding or development
reduction of cerambycid feeding damage ([1]; bolts from 3 m): 93%
reduction of cerambycid feeding damage ([1]; bolts from 8 m): 100%
Percentage of Trees With Fading Crowns ([2]; after 24 days): 0.0 a %
Percentage of Trees With Fading Crowns ([2]; after 32 days): 0.0 a %
Percentage of Trees With Fading Crowns ([2]; after 39 days): 0.0 a %
Percentage of Trees With Fading Crowns ([2]; after 46 days): 0.0 a %
Percentage of Trees With Fading Crowns ([2]; after 52 days): 0.0 a %
Percentage of Trees With Fading Crowns ([2]; after 66 days): 0.0 a %
Mean # of Egg Galleries Total Number ([2]; bolt height 3 m): 0.0 a
Mean # of Egg Galleries With Brood No. ([2]; bolt height 3 m): 0.0 a
Mean # of Egg Galleries Without Brood No. ([2]; bolt height 3 m): 0.0 a
Mean Length of Egg Galleries Total Length ([2]; bolt height 3 m): 0.0 a cm
Mean Length of Egg Galleries With Brood cm ([2]; bolt height 3 m): 0.0 a cm
Mean Length of Egg Galleries Without Brood cm ([2]; bolt height 3 m): 0.0 a cm
Mean # of Egg Galleries Total Number ([2]; bolt height 8 m): 0.0 a
Mean # of Egg Galleries With Brood No. ([2]; bolt height 8 m): 0.0 a
Mean # of Egg Galleries Without Brood No. ([2]; bolt height 8 m): 0.0 a
Mean Length of Egg Galleries Total Length ([2]; bolt height 8 m): 0.0 a cm
Mean Length of Egg Galleries With Brood cm ([2]; bolt height 8 m): 0.0 a cm
Mean Length of Egg Galleries Without Brood cm ([2]; bolt height 8 m): 0.0 a cm
Mean # of Nuptial Chambers With Egg Galleries % of Total ([2]; bolt height 3 m): 0.0%
Mean # of Nuptial Chambers Without Egg Galleries % of Total ([2]; bolt height 3 m): 100.0%
Mean # of Nuptial Chambers Without Egg Galleries No. ([2]; bolt height 3 m): 3.0 ab
Mean # of Nuptial Chambers with Egg Galleries No. ([2]; bolt height 3 m): 0.0 a
Mean Total # of Nuptial Chambers ([2]; bolt height 3 m): 3.0 a
Mean # of Nuptial Chambers With Egg Galleries % of Total ([2]; bolt height 8 m): 0.0%
Mean # of Nuptial Chambers Without Egg Galleries % of Total ([2]; bolt height 8 m): 100.0%
Mean # of Nuptial Chambers Without Egg Galleries No. ([2]; bolt height 8 m): 1.3 ab
Mean # of Nuptial Chambers with Egg Galleries No. ([2]; bolt height 8 m): 0.0 a
Mean Total # of Nuptial Chambers ([2]; bolt height 8 m): 1.3 a
attacks on cut bolts compared to the check ([2]; cut bolts, both heights): significantly fewer
success of attacks that did occur ([2]; cut bolts, both heights): completely unsuccessful
Mean # of Attacks/0.3 Bole Section at 3 m after 24 days, Ips ([2]; standing loblolly pine, after 24 days): 0.5 a
Mean # of Ips caught/Trap ([2]; standing loblolly pine, trap 2 m high): 1.2 a
Ips attacks compared to checks ([2]; standing trees, at 3 m height): significantly fewer
trees with fading crowns (yellowing needles) ([2]; standing trees, first evaluation): None
tree survival ([2]; standing trees, study discontinued after 66 days): all emamectin benzoate-treated trees survived
efficacy against coneworm [3]: highly effective
